This note sets out measurements from US8785470B2, “Heterocyclic compounds and uses thereof” (Infinity Pharmaceuticals, Inc., priority 2011, dated 2014).

Each structure is given as a SMILES string.

For one test, the target named is T1, PI3Kβ (Homo sapiens, UniProt P42338).
T1 construct: purchased Millipore Corporation 14-603-K
Description: PI3-Kinase HTRF assay, PI3Kβ. Type of test: biochemical. To be noted: bins Greater than 10 μM and Greater than 1 μM to 10 μM; 10 μM ATP, PIP2 at 10 μM. The text has this: (§1) A PI3-Kinase HTRF® assay kit (cat No. 33-016) purchased from Millipore Corporation was used to screen compounds provided herein. This assay used specific, high affinity binding of the GRPI pleckstrin homology (PH) domain to PIP3, the product of a Class 1A or 1B PI3 Kinase acting on its physiological substrate PIP2. During the detection phase of the assay, a complex was generated between the GST-tagged PH domain and biotinylated short chain PIP3. The biotinylated PIP3 and the GST-tagged PH domain recruited fluorophores (Streptavidin-Allophycocyanin and Europium-labeled anti-GST respectively) to form the fluorescence resonance energy transfer (FRET) architecture, generating a stable time-resolved FRET signal. The FRET complex was disrupted in a competitive manner by non-biotinylated PIP3, a product formed in the PI3 Kinase assay.
(§2) PI3 Kinase α, β, γ and δ activity was assayed using the PI3 Kinase HTRF® assay kit (catalogue No. 33-016) purchased from Millipore Corporation. Purified recombinant PI3Kα (catalogue No. 14-602-K), PI3Kβ (catalogue No. 14-603-K), PI3Kγ (catalogue No. 14-558-K) and PI3Kδ (catalogue No. 14-604-K) were obtained from Millipore Corporation. Purified recombinant PI3K enzyme was used to catalyze the phosphorylation of phosphatidylinositol 4,5-bisphosphate (PIP2 at 10 μM) to phosphatidylinositol 3,4,5-trisphosphate (PIP3) in the presence of 10 μM ATP. The assay was carried out in 384-well format and detected using a Perkin Elmer EnVision Xcite Multilabel Reader. Emission ratios were converted into percent inhibitions and imported into GraphPad Prism software. The concentration necessary to achieve inhibition of enzyme activity by 50% (IC50) was calculated using concentrations ranging from 20 μM to 0.1 nM (12-point curve). IC50 values were determined using a nonlinear regression model available in GraphPad Prism 5. […]
(In general: Time-resolved FRET reads energy transfer from a long-lived donor to a nearby acceptor.)

A further test deals with Balb/c splenic B cells. The experiment in a line: B cell activation and proliferation assay. Type of test: cell-based. Particulars: Mus musculus, column bins 1 μM to 100 nM (given as 100-1000) and Less than 100 nM, read-out: B cell proliferation EC50. The protocol: The ability of one or more subject compounds to inhibit B cell activation and proliferation is determined according to standard procedures known in the art. For example, an in vitro cellular proliferation assay is established that measures the metabolic activity of live cells. The assay is performed in a 96 well microtiter plate using Alamar Blue reduction. Balb/c splenic B cells are purified over a Ficoll-Paque™ PLUS gradient followed by magnetic cell separation using a MACS B cell Isolation Kit (Miletenyi). Cells are plated in 90 μl at 50.000 cells/well in B Cell Media (RPMI+10% FBS+Penn/Strep+50 μME5 mM HEPES). A compound provided herein is diluted in B Cell Media and added in a 10 μl volume. Plates are incubated for 30 min at 37° C. and 5% CO2 (0.2% DMSO final concentration). A 50 μl B cell stimulation cocktail is then added containing either 10 μg/ml LPS or 5 μg/ml F(ab′)2 Donkey anti-mouse IgM plus 2 ng/ml recombinant mouse IL4 in B Cell Media. Plates are incubated for 72 hours at 37° C. and 5% CO2. A volume of 15 μL of Alamar Blue reagent is added to each well and plates are incubated for 5 hours at 37° C. and 5% CO2. Alamar Blue fluoresce is read at 560Ex/590Em, and IC50 or EC50 values are calculated using GraphPad Prism 5.

A further test concerns the target T2, PI3Kα (Homo sapiens, UniProt P42336).
T2 construct: purchased Millipore Corporation 14-602-K
Description: PI3-Kinase HTRF assay, PI3Kα. Type of test: biochemical. Particulars: bins Greater than 10 μM and Greater than 1 μM to 10 μM; 10 μM ATP, PIP2 at 10 μM; read-out: IC50 P13Kα.
From the text: as §1, §2

T2 sequence (P42336 whole entry): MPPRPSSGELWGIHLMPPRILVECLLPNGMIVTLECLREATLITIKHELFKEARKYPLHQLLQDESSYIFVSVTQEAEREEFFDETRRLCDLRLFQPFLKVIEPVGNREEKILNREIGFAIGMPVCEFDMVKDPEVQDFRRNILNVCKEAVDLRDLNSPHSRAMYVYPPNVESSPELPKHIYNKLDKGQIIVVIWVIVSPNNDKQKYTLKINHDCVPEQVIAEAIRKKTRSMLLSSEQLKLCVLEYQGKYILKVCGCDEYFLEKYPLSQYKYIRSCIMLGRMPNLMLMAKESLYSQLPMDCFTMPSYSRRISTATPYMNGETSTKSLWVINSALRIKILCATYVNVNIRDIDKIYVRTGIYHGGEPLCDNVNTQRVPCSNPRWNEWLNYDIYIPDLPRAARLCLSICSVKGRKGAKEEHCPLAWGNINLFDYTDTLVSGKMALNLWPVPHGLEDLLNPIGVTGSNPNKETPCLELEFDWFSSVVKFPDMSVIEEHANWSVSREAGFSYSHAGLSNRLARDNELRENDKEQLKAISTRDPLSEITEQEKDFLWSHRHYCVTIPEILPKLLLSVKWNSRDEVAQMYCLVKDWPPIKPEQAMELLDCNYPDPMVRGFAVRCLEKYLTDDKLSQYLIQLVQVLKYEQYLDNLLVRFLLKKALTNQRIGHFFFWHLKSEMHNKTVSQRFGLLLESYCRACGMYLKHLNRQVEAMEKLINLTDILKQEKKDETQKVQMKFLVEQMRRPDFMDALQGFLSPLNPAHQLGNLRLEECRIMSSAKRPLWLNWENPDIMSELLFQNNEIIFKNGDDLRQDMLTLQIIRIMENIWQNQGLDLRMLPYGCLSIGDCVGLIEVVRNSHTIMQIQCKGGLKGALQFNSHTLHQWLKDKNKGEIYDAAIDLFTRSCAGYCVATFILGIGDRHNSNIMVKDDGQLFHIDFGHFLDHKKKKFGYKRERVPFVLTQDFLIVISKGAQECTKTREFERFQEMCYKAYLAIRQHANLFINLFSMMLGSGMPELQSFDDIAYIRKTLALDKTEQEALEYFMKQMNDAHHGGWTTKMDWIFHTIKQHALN
T2 sequence (P27986 whole entry partner): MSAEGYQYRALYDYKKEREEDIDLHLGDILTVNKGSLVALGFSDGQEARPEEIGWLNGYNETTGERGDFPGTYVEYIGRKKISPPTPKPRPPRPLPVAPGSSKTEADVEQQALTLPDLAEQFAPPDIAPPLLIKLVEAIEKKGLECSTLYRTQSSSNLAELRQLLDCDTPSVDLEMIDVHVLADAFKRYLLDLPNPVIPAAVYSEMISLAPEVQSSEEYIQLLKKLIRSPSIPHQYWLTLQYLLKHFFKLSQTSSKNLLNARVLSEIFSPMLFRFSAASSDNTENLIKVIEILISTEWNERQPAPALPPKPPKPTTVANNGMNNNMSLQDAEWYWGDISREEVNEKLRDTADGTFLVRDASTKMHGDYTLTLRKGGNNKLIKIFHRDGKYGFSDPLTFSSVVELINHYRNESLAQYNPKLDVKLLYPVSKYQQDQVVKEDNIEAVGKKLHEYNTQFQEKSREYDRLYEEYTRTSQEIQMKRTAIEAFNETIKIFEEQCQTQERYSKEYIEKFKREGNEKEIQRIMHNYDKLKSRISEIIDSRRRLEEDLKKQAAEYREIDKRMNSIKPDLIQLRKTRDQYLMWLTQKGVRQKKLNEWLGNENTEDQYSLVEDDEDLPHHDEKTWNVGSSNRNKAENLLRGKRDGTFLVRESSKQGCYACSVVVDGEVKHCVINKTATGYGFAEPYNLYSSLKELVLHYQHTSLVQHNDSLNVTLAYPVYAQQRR
T1 sequence (P42338 whole entry): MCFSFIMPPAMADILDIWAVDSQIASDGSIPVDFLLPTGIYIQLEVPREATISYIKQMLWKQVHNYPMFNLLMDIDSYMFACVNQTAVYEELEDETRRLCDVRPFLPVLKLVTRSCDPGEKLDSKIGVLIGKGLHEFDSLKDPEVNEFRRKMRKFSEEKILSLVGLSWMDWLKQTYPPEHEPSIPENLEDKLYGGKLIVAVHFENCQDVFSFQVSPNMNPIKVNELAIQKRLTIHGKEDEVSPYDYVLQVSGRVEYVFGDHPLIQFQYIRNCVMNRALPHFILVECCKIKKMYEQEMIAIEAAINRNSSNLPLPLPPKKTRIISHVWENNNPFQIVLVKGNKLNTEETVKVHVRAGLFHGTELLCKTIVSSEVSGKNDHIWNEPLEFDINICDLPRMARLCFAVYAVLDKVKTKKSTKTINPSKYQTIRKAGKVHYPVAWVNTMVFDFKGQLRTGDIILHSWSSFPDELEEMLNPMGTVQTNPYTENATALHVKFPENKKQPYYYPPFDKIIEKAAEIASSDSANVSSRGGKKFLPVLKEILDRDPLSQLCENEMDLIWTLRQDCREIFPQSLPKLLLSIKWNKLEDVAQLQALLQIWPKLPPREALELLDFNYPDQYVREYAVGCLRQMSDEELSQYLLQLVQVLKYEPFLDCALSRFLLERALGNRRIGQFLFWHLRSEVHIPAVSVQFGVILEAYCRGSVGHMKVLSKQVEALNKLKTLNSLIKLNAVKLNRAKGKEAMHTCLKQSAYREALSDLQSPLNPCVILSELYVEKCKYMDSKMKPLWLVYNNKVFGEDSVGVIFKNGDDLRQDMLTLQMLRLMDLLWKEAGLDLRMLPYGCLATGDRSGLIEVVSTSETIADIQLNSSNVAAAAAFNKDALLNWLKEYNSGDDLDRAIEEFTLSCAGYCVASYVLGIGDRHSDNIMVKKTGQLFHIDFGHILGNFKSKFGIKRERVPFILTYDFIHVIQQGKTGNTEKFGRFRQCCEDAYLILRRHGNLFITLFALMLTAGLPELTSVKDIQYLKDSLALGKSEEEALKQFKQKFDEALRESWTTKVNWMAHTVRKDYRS
T1 sequence (P27986 whole entry partner): as the sequence (P27986 whole entry partner) above

On to `COc1cncc(-c2cccc3cc([C@H](C)Nc4nc(N)ncc4C(N)=O)n(-c4ccccc4)c(=O)c23)c1` [Compound 10, 2-amino-4-((S)-1-(8-(5-methoxypyridin-3-yl)-1-oxo-2-phenyl-1,2-dihydroisoquinolin-3-yl)ethylamino)pyrimidine-5-carboxamide], for which the IC50 against PI3Kβ is 1000 to 10000 nM. Also, the EC50 in the test with Balb/c splenic B cells was under 100 nM.

As to `C[C@H](Nc1nc(N)ncc1C#N)c1cc2cccc(-c3cncc(O)c3)c2c(=O)n1-c1ccccc1` [Compound 13, 2-amino-4-((S)-1-(8-(5-hydroxypyridin-3-yl)-1-oxo-2-phenyl-1,2-dihydroisoquinolin-3-yl)ethylamino)pyrimidine-5-carbonitrile], the IC50 against PI3Kβ and on PI3Kα was 1000 to 10000 nM throughout. In the test with Balb/c splenic B cells, the EC50 was under 100 nM.

In the case of `Cc1cccc2cc([C@H](C)Nc3nc(N)ncc3C(F)(F)F)n(-c3cccc(F)c3)c(=O)c12` [Compound 16], the IC50 at PI3Kβ fell in the range of 1000 to 10000 nM. The EC50 with Balb/c splenic B cells was under 100 nM.

As for `C[C@H](Nc1nc(N)ncc1C#N)c1cc2cccc(-c3cnc4ccccc4c3)c2c(=O)n1-c1cccc(F)c1` [Compound 23], the concentration for half-maximal inhibition (IC50) against PI3Kβ fell in the range of 1000 to 10000 nM. Besides, in the test on Balb/c splenic B cells, the EC50 was under 100 nM.

For the molecule `COc1cncc(-c2cccc3cc([C@H](C)Nc4nc(N)ncc4C#N)n(-c4cccc(F)c4)c(=O)c23)c1` [Compound 27], the IC50 against PI3Kβ fell in the range of 1000 to 10000 nM. Besides, in the test with Balb/c splenic B cells, the EC50 was under 100 nM.

In the case of `COc1cc(-c2cccc3cc([C@H](C)Nc4nc(N)ncc4C#N)n(-c4cccc(F)c4)c(=O)c23)ccn1` [Compound 28], at PI3Kβ, the IC50 lay in the range of 1000 to 10000 nM. Further, the EC50 with Balb/c splenic B cells was under 100 nM.

Molecule `C[C@H](Nc1nc(N)ncc1C#N)c1cc2cccc(-c3ccnnc3)c2c(=O)n1-c1cccc(F)c1` [Compound 30] registered an IC50 on PI3Kβ of 1000 to 10000 nM. Also, the EC50 in the test on Balb/c splenic B cells was under 100 nM.

Turning to `C[C@H](Nc1nc(N)ncc1C#N)c1cc2cccc(-c3ccc(Cl)cc3)c2c(=O)n1-c1ccccc1` [Compound 32], the IC50 against PI3Kβ and at PI3Kα was 1000 to 10000 nM throughout.

Turning to `COc1ccc(-c2cccc3cc([C@H](C)Nc4nc(N)ncc4C#N)n(-c4ccccc4)c(=O)c23)cn1` [Compound 35], the IC50 on PI3Kβ and on PI3Kα was 1000 to 10000 nM each time.

As for `COc1ccc(-c2cccc3cc([C@H](C)Nc4nc(N)ncc4C#N)n(-c4ccccc4)c(=O)c23)cc1` [Compound 38], the IC50 at PI3Kβ and at PI3Kα was 1000 to 10000 nM throughout.

As for `C[C@H](Nc1nc(N)ncc1C#N)c1cc2cccc(-c3ccc(N(C)C)cc3)c2c(=O)n1-c1ccccc1` [Compound 42], the IC50 against PI3Kβ and on PI3Kα was 1000 to 10000 nM throughout. For the same molecule, in the test with Balb/c splenic B cells, the EC50 is under 100 nM.

Consider `C[C@H](Nc1nc(N)ncc1C#N)c1cc2cccc(-c3ccc(C#N)cc3)c2c(=O)n1-c1ccccc1` [Compound 43], for which the IC50 at PI3Kβ and at PI3Kα was 1000 to 10000 nM throughout. Also, the EC50 in the test on Balb/c splenic B cells is under 100 nM.

Consider `C[C@H](Nc1nc(N)ncc1C#N)c1cc2cccc(-c3cccc(C#N)c3)c2c(=O)n1-c1ccccc1` [Compound 44], for which the IC50 against PI3Kβ and at PI3Kα was 1000 to 10000 nM throughout. Besides, in the test on Balb/c splenic B cells, the EC50 is under 100 nM.

For the molecule `C[C@H](Nc1nc(N)ncc1C#N)c1cc2cccc(-c3ccc(S(N)(=O)=O)cc3)c2c(=O)n1-c1ccccc1` [Compound 45], the IC50 against PI3Kβ and on PI3Kα was 1000 to 10000 nM in each case. Moreover, the EC50 in the test with Balb/c splenic B cells is under 100 nM.

Regarding `Cc1ncc(-c2cccc3cc([C@H](C)Nc4nc(N)ncc4C#N)n(-c4ccccc4)c(=O)c23)s1` [Compound 68], the IC50 at PI3Kβ and at PI3Kα was 1000 to 10000 nM in each case.

On to `COc1ncc(-c2cccc3cc([C@H](C)Nc4nc(N)ncc4C#N)n(-c4ccccc4)c(=O)c23)s1` [Compound 70], for which the IC50 on PI3Kβ and on PI3Kα was 1000 to 10000 nM throughout.

In turn, `COc1cc(-c2cccc3cc([C@H](C)Nc4nc(N)ncc4C#N)n(-c4ccccc4)c(=O)c23)cnc1C` [Compound 100] gave an IC50 against PI3Kβ of 1000 to 10000 nM. In the test with Balb/c splenic B cells, the EC50 is under 100 nM.

`C[C@H](Nc1nc(N)ncc1C#N)c1cc2cccc(CC#N)c2c(=O)n1-c1ccccc1` [Compound 124]: the IC50 against PI3Kβ was in the range of 1000 to 10000 nM. Moreover, in the test on Balb/c splenic B cells, the EC50 was under 100 nM.

With `COc1cc(-c2cccc3cc([C@H](C)Nc4nc(N)ncc4-c4cnc(OC)s4)n(-c4ccccc4)c(=O)c23)ccn1` [Compound 140], the IC50 on PI3Kβ was in the range of 1000 to 10000 nM. The EC50 with Balb/c splenic B cells was under 100 nM.

Regarding `COc1cccc(-c2cccc3cc([C@H](C)Nc4nc(N)ncc4C#N)n(-c4ccccc4)c(=O)c23)n1` [Compound 166], on PI3Kβ, the IC50 is 1000 to 10000 nM. Further, in the test with Balb/c splenic B cells, the EC50 was under 100 nM.

Molecule `COc1cc(-c2cccc3cc([C@H](C)Nc4nc(N)ncc4-c4cnc(C)s4)n(-c4ccccc4)c(=O)c23)ccn1` [Compound 181] gave an IC50 against PI3Kβ of 1000 to 10000 nM. Moreover, the EC50 with Balb/c splenic B cells is under 100 nM.

As for `COc1cc(-c2cccc3cc([C@H](C)Nc4nc(N)ncc4C#N)n(-c4ccccc4)c(=O)c23)cnc1OC` [Compound 192], the IC50 on PI3Kβ lay in the range of 1000 to 10000 nM. The EC50 in the test on Balb/c splenic B cells is under 100 nM.

Regarding `C[C@H](Nc1nc(N)ncc1C#N)c1cc2cccc(-c3ccc(=O)n(C4CCCC4)c3)c2c(=O)n1-c1ccccc1` [Compound 233], the IC50 against PI3Kβ is 1000 to 10000 nM. In addition, the EC50 with Balb/c splenic B cells is under 100 nM.

On to `C[C@H](Nc1nc(N)ncc1C#N)c1cc2cccc(-c3ccc(=O)n(C4CCOCC4)c3)c2c(=O)n1-c1ccccc1` [Compound 235], for which, on PI3Kβ, the IC50 was 1000 to 10000 nM.

In the case of `C[C@H](Nc1nc(N)ncc1C#N)c1cc2cccc(Cl)c2c(=O)n1CC(C)(C)C` [Compound 246], the IC50 on PI3Kβ lay in the range of 1000 to 10000 nM. Further, in the test with Balb/c splenic B cells, the EC50 lay within 100 to 1000 nM.

On PI3Kβ, `Cc1ccc(-n2c([C@H](C)Nc3nc(N)ncc3C#N)cc3cccc(Cl)c3c2=O)cc1` [Compound 252] showed an IC50 of 1000 to 10000 nM. Besides, the EC50 in the test with Balb/c splenic B cells was in the range of 100 to 1000 nM.

Regarding `C[C@H](Nc1nc(N)ncc1C#N)c1cc2cccc(Cl)c2c(=O)n1-c1c(F)cc(F)cc1F` [Compound 258], the IC50 against PI3Kβ was in the range of 1000 to 10000 nM.

Consider `C[C@H](Nc1nc(N)ncc1C#N)c1cc2cccc(Cl)c2c(=O)n1-c1ccc2c(c1)OCO2` [Compound 261], for which, at PI3Kβ, the IC50 was in the range of 1000 to 10000 nM.

`C[C@H](Nc1nc(N)ncc1C#N)c1cc2cccc(Cl)c2c(=O)n1-c1cccc(F)c1F` [Compound 282] returned an IC50 against PI3Kβ of 1000 to 10000 nM.

On PI3Kβ, `C[C@H](Nc1nc(N)ncc1C#N)c1cc2cccc(Cl)c2c(=O)n1Cc1ccccc1` [Compound 303] came in with an IC50 of 1000 to 10000 nM.

In turn, `Cc1nc(-c2cnc(N)nc2N[C@@H](C)c2cc3cccc(Cl)c3c(=O)n2-c2ccccc2)sc1C` [Compound 366] returned an IC50 against PI3Kβ of 1000 to 10000 nM.

With `C[C@H](Nc1nc(N)ncc1-c1cccs1)c1cc2cccc(Cl)c2c(=O)n1-c1ccccc1` [Compound 367], the IC50 at PI3Kβ is 1000 to 10000 nM. In addition, in the test on Balb/c splenic B cells, the EC50 is under 100 nM.

`Cc1cnc(-c2cnc(N)nc2N[C@@H](C)c2cc3cccc(Cl)c3c(=O)n2-c2ccccc2)s1` [Compound 368] displayed an IC50 against PI3Kβ of 1000 to 10000 nM.

Take `C[C@H](Nc1nc(N)ncc1-c1ccsc1)c1cc2cccc(Cl)c2c(=O)n1-c1ccccc1` [Compound 373]: on PI3Kβ, the IC50 lay in the range of 1000 to 10000 nM.

`C[C@H](Nc1nc(N)ncc1-c1ccccn1)c1cc2cccc(Cl)c2c(=O)n1-c1ccccc1` [Compound 375] showed an IC50 at PI3Kβ of 1000 to 10000 nM.

In turn, `C[C@H](Nc1nc(N)ncc1-c1cnn(C)c1)c1cc2cccc(Cl)c2c(=O)n1-c1ccccc1` [Compound 376] yielded an IC50 against PI3Kβ of 1000 to 10000 nM.

`C[C@H](Nc1nc(N)ncc1-c1ccc(O)cc1)c1cc2cccc(Cl)c2c(=O)n1-c1ccccc1` [Compound 436]: the IC50 against PI3Kβ fell in the range of 1000 to 10000 nM.

By IC50 is commonly meant the midpoint of a concentration-inhibition curve.
